Each molecule was assayed against T1, M3 muscarinic acetylcholine receptor (mAChR) (Homo sapiens, UniProt P20309) (assay: FLIPR calcium assay (Fluo 8), M3-overexpressing CHO-K1 cells). Details: FLIPR.
T1 construct: expressed in transfected cells; host or cells: CHO-K1
T1 sequence (P20309 whole entry): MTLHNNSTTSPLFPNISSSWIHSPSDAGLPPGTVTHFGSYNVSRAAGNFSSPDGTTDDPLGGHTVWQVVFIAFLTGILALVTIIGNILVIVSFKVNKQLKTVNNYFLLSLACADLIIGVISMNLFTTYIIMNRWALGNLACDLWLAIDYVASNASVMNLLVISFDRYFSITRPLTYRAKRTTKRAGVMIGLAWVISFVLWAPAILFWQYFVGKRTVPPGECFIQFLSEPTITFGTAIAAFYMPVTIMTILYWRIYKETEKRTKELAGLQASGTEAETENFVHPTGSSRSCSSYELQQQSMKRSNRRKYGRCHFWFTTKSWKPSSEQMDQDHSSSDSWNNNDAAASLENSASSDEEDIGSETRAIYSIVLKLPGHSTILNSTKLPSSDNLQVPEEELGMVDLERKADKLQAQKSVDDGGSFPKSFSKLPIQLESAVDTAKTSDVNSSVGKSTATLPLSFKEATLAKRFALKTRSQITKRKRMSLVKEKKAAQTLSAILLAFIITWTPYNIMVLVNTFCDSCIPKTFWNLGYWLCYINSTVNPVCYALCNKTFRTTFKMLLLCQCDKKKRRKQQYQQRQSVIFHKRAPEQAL
Type: cell-based
Experimental: Stimulation of a Gq-coupled G-protein coupled receptors (GPCRs), result in an efflux of calcium from the endoplasmic reticulum to the cytoplasm (Berridge, 1993), thus rendering this assay appropriate for the assessment of M1, M3 and M5 receptors. CHO-K1 cells overexpressing the M1, M3, or M5 muscarinic acetylcholine receptor (mAChR) were dispensed at 15,000 cells per well in 30 μl volume to 384-well plates and grown overnight at 37° C. in a 5% CO2 atmosphere. Fluo-8 Solution, 10 μl per well, was added to each well and incubated for 30 minutes at 37° C. in a 5% CO2 atmosphere. Compounds diluted in Hanks' balanced salt solution (HBSS) were transferred to the cell assay plate at 10 μl per well, and then read on a FLIPR instrument. EC50 and Emax figures were calculated from the resulting data for each receptor subtype.
Molecule CCOC(=O)N1CC2(CC[C@@H](N3CCN(c4cc(F)cnc4-c4ccn(COCC[Si](C)(C)C)n4)CC3)C2)C1 [Compound A196] has an EC50 of over 10 µM. Work on CCOC(=O)N1CC2(CC[C@@H](N3CCN(c4cc(F)cnc4-c4ccccc4C(=O)NC)CC3)C2)C1 [Compound A151] yielded an EC50 of over 10 µM. CCOC(=O)N1CC2(CC[C@@H](N3CCN(c4cc(F)cnc4-c4ccc(=O)n(C(C)C)c4)CC3)C2)C1 [Compound A149] showed an EC50 of over 10 µM. With CCOC(=O)N1CC2(CC[C@@H](N3CCN(c4cc(F)cnc4-c4cnn(C(C)C)n4)CC3)C2)C1 [Compound A257] the EC50 was over 10 µM. In the case of CCOC(=O)N1CC2(CC[C@@H](N3CCC(c4cc(F)cnc4-c4ccc(F)cn4)CC3)C2)C1 [Compound A292], the EC50 is reported as over 10 µM. With CCOC(=O)N1CC2(C[C@H](N3CCN(c4cccnc4-c4nncs4)CC3)CO2)C1 [Compound A237] the EC50 was over 10 µM. For CCOC(=O)N1CC2(CCC(N3CCN(c4cc(F)cnc4-c4cnccn4)CC3)CC2)C1 [Compound A224], the EC50 was over 10 µM. CCOC(=O)N1CC2(CC(N3[C@@H]4CC[C@H]3CN(c3cc(F)cnc3-c3cnccn3)C4)CS2)C1 (single isomer, unassigned) [Compound A220] showed an EC50 of over 10 µM. For CCOC(=O)N1CC2(CCC(N3[C@@H]4CC[C@H]3CN(c3cc(F)cnc3-c3cnccn3)C4)C2)C1 (single isomer, unassigned) [Compound A222], the EC50 was over 10 µM. CCOC(=O)N1CC2(CC[C@@H](N3CCN(c4cc(F)cnc4-c4ccnc(C)n4)CC3)C2)C1 [Compound A254] showed an EC50 of over 10 µM. For CCOC(=O)N1CC2(CC[C@@H](N3CCN(c4cc(F)cnc4-c4cc(F)cnc4F)CC3)C2)C1 [Compound A232], the EC50 was over 10 µM. Molecule CCOC(=O)N1CC2(C[C@H](N3CCN(c4cc(F)cnc4-c4cnccn4)CC3)CS2)C1 [Compound A225] has an EC50 of over 10 µM.

Same assay, conditions: FLIPR calcium
For CCOC(=O)N1CC2(CC[C@@H](N3CCN(c4cccnc4OC4CCC4)CC3)C2)C1 [Compound A5, (R)-ethyl 6-(4-(2-cyclobutoxypyridin-3-yl)piperazin-1-yl)-2-azaspiro[3.4]octane-2-carboxylate], the EC50 was over 10 µM. With CCOC(=O)N1CC2(CC[C@@H](N3CCN(c4cccnc4-c4cncc(C#N)c4)CC3)C2)C1 [Compound A27] the EC50 was over 10 µM.

These molecules were tested against T2, M4 mAChR (Homo sapiens, UniProt P08173) (assay: cAMP TR-FRET assay with forskolin, M4-overexpressing CHO-K1 cells). Details: cAMP TR-FRET with forskolin.
T2 construct: expressed in transfected cells; host or cells: CHO-K1
T2 sequence (P08173 1-479): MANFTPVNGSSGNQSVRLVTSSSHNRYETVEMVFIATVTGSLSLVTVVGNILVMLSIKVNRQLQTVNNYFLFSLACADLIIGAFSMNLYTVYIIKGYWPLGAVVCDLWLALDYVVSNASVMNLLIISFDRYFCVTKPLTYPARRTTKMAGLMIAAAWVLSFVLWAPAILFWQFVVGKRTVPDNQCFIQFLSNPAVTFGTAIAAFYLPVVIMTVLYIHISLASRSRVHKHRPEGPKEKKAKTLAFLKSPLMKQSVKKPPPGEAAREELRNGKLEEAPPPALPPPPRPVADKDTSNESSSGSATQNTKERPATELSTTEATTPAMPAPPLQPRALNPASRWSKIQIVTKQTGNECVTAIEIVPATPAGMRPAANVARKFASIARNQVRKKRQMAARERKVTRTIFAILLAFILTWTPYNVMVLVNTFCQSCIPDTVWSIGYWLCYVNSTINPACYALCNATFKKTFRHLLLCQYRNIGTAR
Type: cell-based
Excerpt: The M2 and M4 mACh receptors are Gi-coupled receptors which, upon activation, produce a decrease in cAMP. Assays were developed that measured the potency and efficacy of compounds at the M2 or M4 mAChR using M2- or M4-overexpressing CHO-K1 cell lines. Time-resolved fluorescence resonance energy transfer (TR-FRET) technology was used, where signal occurs as a result of transfer of energy if the donor molecule is in close proximity to an acceptor molecule when the molecules have bound to the molecule of interest. The cAMP detection is a competition binding assay, where cAMP produced by cells competes for binding with the labeled donor molecule to the anti-cAMP acceptor antibody. Due to the low basal levels of cAMP in the CHO-K1 cell line, forskolin was used to increase cAMP levels to enable assessment of agonist activity at the mAChR of interest.
CCOC(=O)N1CC2(CC[C@@H](N3CCC(O)(c4cc(F)cnc4-c4cnccn4)CC3)C2)C1 (single isomer, unassigned) [Compound A14] showed an Emax of 80 to 100%. Work on CCOC(=O)N1CC2(CC[C@H](N3CCC(c4cc(F)cnc4-n4cc(C)nn4)CC3)C2)C1 (single isomer, unassigned) [Compound A24] yielded an Emax of 80 to 100%. In the case of CCOC(=O)N1CC2(CC[C@H](N3CCC(c4cc(F)cnc4-c4cnccn4)CC3)C2)C1 (single isomer, unassigned) [Compound A12], the Emax is reported as 80 to 100%. CCOC(=O)N1CC2(CC[C@@H](N3CCC(c4cc(F)cnc4-c4cnccn4)CC3)C2)C1 (single isomer, unassigned) [Compound A11] was tested, and the Emax was 80 to 100%. CCOC(=O)N1CC2(CC[C@@H](N3CCC(c4cc(F)cnc4-n4cc(C)nn4)CC3)C2)C1 (single isomer, unassigned) [Compound A23] showed an Emax of 80 to 100%. CCOC(=O)N1CC2(CCC(N3CCN(c4cccnc4N4CCC4)CC3)C2)C1 (stereo not shown) [Compound A4, ethyl 6-(4-(2-(azetidin-1-yl)pyridin-3-yl)piperazin-1-yl)-2-azaspiro[3.4]octane-2-carboxylate] was tested, and the Emax was 80 to 100%. Molecule CCOC(=O)N1CC2(CC[C@H](N3CCC(c4cc(F)cnc4-c4nncs4)CC3)C2)C1 (single isomer, unassigned) [Compound A21] has an Emax of 80 to 100%. For CCOC(=O)N1CC2(CC[C@@H](N3CCN(c4cccnc4-c4cncc(OC(F)F)c4)CC3)C2)C1 [Compound A28], the Emax was 80 to 100%. With CCOC(=O)N1CC2(CC[C@@H](N3CCN(c4cc(F)cnc4C4(F)CCOCC4)CC3)C2)C1 (single isomer, unassigned) [Compound A19] the Emax was 80 to 100%. For CCOC(=O)N1CC2(CC[C@@H](N3CCC(c4cc(F)cnc4-c4nncs4)CC3)C2)C1 (single isomer, unassigned) [Compound A22], the Emax was 80 to 100%. CCOC(=O)N1CC2(CC[C@@H](N3CCN(c4cc(F)cnc4-c4cscn4)CC3)C2)C1 [Compound A8, ethyl (6R)-6-[4-(5-fluoro-2-thiazol-4-yl-3-pyridyl)piperazin-1-yl]-2-azaspiro[3.4]octane-2-carboxylate] was tested, and the Emax was 80 to 100%.

Same assay, conditions: cAMP assay
CCOC(=O)N1CC2(CC[C@@H](N3CCN(c4cc(F)cnc4-c4ncc(C)s4)CC3)C2)C1 [Compound A266] gave an Emax of 80 to 100%. Molecule CCOC(=O)N1CC2(CC[C@@H](N3CCN(c4cc(F)cnc4-c4ccsn4)CC3)C2)C1 [Compound A270] has an Emax of 80 to 100%. Molecule CCOC(=O)N1CC2(CC[C@@H](N3CCN(c4cc(Cl)cnc4-c4ncccc4F)CC3)C2)C1 [Compound A268] has an Emax of 80 to 100%. CCOC(=O)N1CC2(CC[C@@H](N3CCN(c4cccnc4-c4nncs4)CC3)C2)C1 [Compound A264] showed an Emax of 80 to 100%. With CCOC(=O)N1CC2(CC[C@@H](N3CCN(c4cc(F)cnc4-c4cccnn4)CC3)C2)C1 [Compound A242] the Emax was 80 to 100%. CCOC(=O)N1CC2(CC[C@@H](N3CCN(c4cc(F)cnc4-c4ncccc4Cl)CC3)C2)C1 [Compound A287] gave an Emax of 80 to 100%. In the case of CCOC(=O)N1CC2(CC[C@@H](N3CCN(c4cc(Cl)cnc4-c4ncccc4Cl)CC3)C2)C1 [Compound A269], the Emax is reported as 80 to 100%. In the case of CCOC(=O)N1CC2(CC[C@@H](N3CCN(c4cc(F)cnc4-c4ncc(F)cc4F)CC3)C2)C1 [Compound A240], the Emax is reported as 80 to 100%. CCOC(=O)N1CC2(CC[C@@H](N3CCN(c4cc(F)cnc4C4CCC(F)(F)CC4)CC3)C2)C1 [Compound A275] showed an Emax of 80 to 100%. CCOC(=O)N1CC2(CC[C@@H](N3CCN(c4cc(Cl)cnc4Br)CC3)C2)C1 [Compound A263] was tested, and the Emax was 80 to 100%. CCOC(=O)N1CC2(CC[C@@H](N3CCN(c4cc(F)cnc4C4CCOC4)CC3)C2)C1 (single isomer, unassigned) [Compound A281] gave an Emax of 80 to 100%. CCOC(=O)N1CC2(CC[C@@H](N3CCN(c4cc(F)cnc4-c4c[nH]c(=O)[nH]c4=O)CC3)C2)C1 [Compound A211] gave an Emax of 80 to 100%. CCOC(=O)N1CC2(CC[C@@H](N3CCN(c4cc(F)cnc4-c4nncs4)CC3)C2)C1 [Compound A236] showed an Emax of 80 to 100%. CCOC(=O)N1CC2(CC[C@@H](N3CCN(c4cc(F)cnc4-c4ccc(C)nn4)CC3)C2)C1 [Compound A241] showed an Emax of 50 to 79.9%. With CCOC(=O)N1CC2(CC[C@@H](N3CCN(c4cc(F)cnc4OC4(C)CCOCC4)CC3)C2)C1 [Compound A261] the Emax was 80 to 100%. CCOC(=O)N1CC2(CC[C@@H](N3CCN(c4cccnc4C4CCOCC4)CC3)C2)C1 [Compound A278] gave an Emax of 80 to 100%. CCOC(=O)N1CC2(CC[C@@H](N3CCN(c4cc(Cl)cnc4-c4cscn4)CC3)C2)C1 [Compound A212] was tested, and the Emax was 80 to 100%. Molecule CCOC(=O)N1CC2(CC[C@@H](N3CCN(c4cc(Cl)cnc4-c4cnc(C)cn4)CC3)C2)C1 [Compound A239] has an Emax of 80 to 100%. Work on CCOC(=O)N1CC2(CC[C@@H](N3CCN(c4cc(F)cnc4C4CC5(COC5)C4)CC3)C2)C1 [Compound A277] yielded an Emax of 80 to 100%. In the case of CCOC(=O)N1CC2(CC[C@@H](N3CCN(c4cc(F)cnc4-c4nccnc4OC)CC3)C2)C1 [Compound A238], the Emax is reported as 19 to 49.9%. CCOC(=O)N1CC2(CC[C@@H](N3CCN(c4cc(F)cnc4-c4ccns4)CC3)C2)C1 [Compound A213] gave an Emax of 80 to 100%. For CCOC(=O)N1CC2(CC[C@@H](N3CCN(c4cc(Cl)cnc4-n4nccn4)CC3)C2)C1 [Compound A262], the Emax was 80 to 100%. In the case of CCOC(=O)N1CC2(CC[C@@H](N3CCN(c4cc(F)cnc4-c4cnsc4)CC3)C2)C1 [Compound A214], the Emax is reported as 80 to 100%. Molecule CCOC(=O)N1CC2(CC[C@@H](N3CCN(c4cc(F)cnc4-c4nc(C)cs4)CC3)C2)C1 [Compound A267] has an Emax of 50 to 79.9%. CCOC(=O)N1CC2(CC[C@@H](N3CCN(c4cc(F)cnc4-n4cnnc4)CC3)C2)C1 [Compound A260] gave an Emax of 80 to 100%. CCOC(=O)N1CC2(CC[C@@H](N3CCN(c4cc(Cl)cnc4-c4cnc(C)nc4)CC3)C2)C1 [Compound A271] gave an Emax of 80 to 100%. Molecule CCOC(=O)N1CC2(CC[C@@H](N3CCN(c4cc(F)cnc4-c4nccs4)CC3)C2)C1 [Compound A286] has an Emax of 80 to 100%.
